Data from the NIST ThermoML archive (doi:10.1016/j.jct.2004.06.008).
Numbers after ± are expanded uncertainties.

Assay: molar heat capacity at constant pressure
Conditions: 101.33 kPa, Crystal, Vacuum adiabatic calorimetry

[Cu] [copper]
molar heat capacity at constant pressure (6.56 K): 0.0232 ± 0.0002 J/K/mol
molar heat capacity at constant pressure (7.16 K): 0.0255 ± 0.0002 J/K/mol
molar heat capacity at constant pressure (7.85 K): 0.0323 ± 0.0002 J/K/mol
molar heat capacity at constant pressure (8.64 K): 0.04 ± 0.0002 J/K/mol
molar heat capacity at constant pressure (9.55 K): 0.0534 ± 0.0003 J/K/mol
molar heat capacity at constant pressure (10.51 K): 0.0663 ± 0.0004 J/K/mol
molar heat capacity at constant pressure (11.42 K): 0.0839 ± 0.0005 J/K/mol
molar heat capacity at constant pressure (12.43 K): 0.1121 ± 0.0005 J/K/mol
molar heat capacity at constant pressure (13.56 K): 0.137 ± 0.0007 J/K/mol
molar heat capacity at constant pressure (14.81 K): 0.1926 ± 0.0008 J/K/mol
molar heat capacity at constant pressure (16.17 K): 0.2314 ± 0.0009 J/K/mol
molar heat capacity at constant pressure (17.69 K): 0.304 ± 0.0013 J/K/mol
molar heat capacity at constant pressure (19.34 K): 0.4106 ± 0.0016 J/K/mol
molar heat capacity at constant pressure (20.19 K): 0.4727 ± 0.0019 J/K/mol
molar heat capacity at constant pressure (21.13 K): 0.5555 ± 0.0021 J/K/mol
molar heat capacity at constant pressure (21.94 K): 0.6242 ± 0.0022 J/K/mol
molar heat capacity at constant pressure (23.08 K): 0.7448 ± 0.0026 J/K/mol
molar heat capacity at constant pressure (23.76 K): 0.8181 ± 0.0028 J/K/mol
molar heat capacity at constant pressure (25.79 K): 1.058 ± 0.0034 J/K/mol
molar heat capacity at constant pressure (28.01 K): 1.37 ± 0.0041 J/K/mol
molar heat capacity at constant pressure (30.46 K): 1.761 ± 0.0049 J/K/mol
molar heat capacity at constant pressure (33.17 K): 2.259 ± 0.006 J/K/mol
molar heat capacity at constant pressure (36.05 K): 2.853 ± 0.0071 J/K/mol
molar heat capacity at constant pressure (37.57 K): 3.173 ± 0.0077 J/K/mol
molar heat capacity at constant pressure (39.01 K): 3.497 ± 0.0084 J/K/mol
molar heat capacity at constant pressure (40.74 K): 3.898 ± 0.0091 J/K/mol
molar heat capacity at constant pressure (44.1 K): 4.708 ± 0.011 J/K/mol
molar heat capacity at constant pressure (45.89 K): 5.146 ± 0.011 J/K/mol
molar heat capacity at constant pressure (47.52 K): 5.549 ± 0.012 J/K/mol
molar heat capacity at constant pressure (49.38 K): 6.025 ± 0.013 J/K/mol
molar heat capacity at constant pressure (52.99 K): 6.933 ± 0.015 J/K/mol
molar heat capacity at constant pressure (54.47 K): 7.281 ± 0.015 J/K/mol
molar heat capacity at constant pressure (56.65 K): 7.837 ± 0.016 J/K/mol
molar heat capacity at constant pressure (56.87 K): 7.882 ± 0.017 J/K/mol
molar heat capacity at constant pressure (59.76 K): 8.582 ± 0.018 J/K/mol
molar heat capacity at constant pressure (62.64 K): 9.272 ± 0.019 J/K/mol
molar heat capacity at constant pressure (66.47 K): 10.14 ± 0.021 J/K/mol
molar heat capacity at constant pressure (71.22 K): 11.16 ± 0.023 J/K/mol
molar heat capacity at constant pressure (75.97 K): 12.13 ± 0.025 J/K/mol
molar heat capacity at constant pressure (80.79 K): 13.04 ± 0.026 J/K/mol
molar heat capacity at constant pressure (85.65 K): 13.89 ± 0.028 J/K/mol
molar heat capacity at constant pressure (90.55 K): 14.68 ± 0.03 J/K/mol
molar heat capacity at constant pressure (95.49 K): 15.41 ± 0.031 J/K/mol
molar heat capacity at constant pressure (100.46 K): 16.08 ± 0.032 J/K/mol
molar heat capacity at constant pressure (105.45 K): 16.71 ± 0.034 J/K/mol
molar heat capacity at constant pressure (110.46 K): 17.28 ± 0.035 J/K/mol
molar heat capacity at constant pressure (115.49 K): 17.81 ± 0.036 J/K/mol
molar heat capacity at constant pressure (120.54 K): 18.3 ± 0.037 J/K/mol
molar heat capacity at constant pressure (125.61 K): 18.75 ± 0.038 J/K/mol
molar heat capacity at constant pressure (130.68 K): 19.16 ± 0.038 J/K/mol
molar heat capacity at constant pressure (134.74 K): 19.47 ± 0.039 J/K/mol
molar heat capacity at constant pressure (135.77 K): 19.54 ± 0.039 J/K/mol
molar heat capacity at constant pressure (139.84 K): 19.82 ± 0.04 J/K/mol
molar heat capacity at constant pressure (140.87 K): 19.89 ± 0.04 J/K/mol
molar heat capacity at constant pressure (144.94 K): 20.16 ± 0.04 J/K/mol
molar heat capacity at constant pressure (150.05 K): 20.46 ± 0.041 J/K/mol
molar heat capacity at constant pressure (155.17 K): 20.75 ± 0.042 J/K/mol
molar heat capacity at constant pressure (160.3 K): 21.02 ± 0.042 J/K/mol
molar heat capacity at constant pressure (165.43 K): 21.27 ± 0.043 J/K/mol
molar heat capacity at constant pressure (170.57 K): 21.5 ± 0.043 J/K/mol
molar heat capacity at constant pressure (175.7 K): 21.72 ± 0.043 J/K/mol
molar heat capacity at constant pressure (180.85 K): 21.92 ± 0.044 J/K/mol
molar heat capacity at constant pressure (186 K): 22.11 ± 0.044 J/K/mol
molar heat capacity at constant pressure (191.15 K): 22.28 ± 0.045 J/K/mol
molar heat capacity at constant pressure (193.33 K): 22.35 ± 0.045 J/K/mol
molar heat capacity at constant pressure (196.3 K): 22.45 ± 0.045 J/K/mol
molar heat capacity at constant pressure (198.48 K): 22.51 ± 0.045 J/K/mol
molar heat capacity at constant pressure (201.46 K): 22.6 ± 0.045 J/K/mol
molar heat capacity at constant pressure (203.64 K): 22.66 ± 0.045 J/K/mol
molar heat capacity at constant pressure (206.62 K): 22.74 ± 0.045 J/K/mol
molar heat capacity at constant pressure (208.8 K): 22.79 ± 0.046 J/K/mol
molar heat capacity at constant pressure (213.96 K): 22.93 ± 0.046 J/K/mol
molar heat capacity at constant pressure (219.13 K): 23.06 ± 0.046 J/K/mol
molar heat capacity at constant pressure (224.29 K): 23.19 ± 0.046 J/K/mol
molar heat capacity at constant pressure (229.45 K): 23.31 ± 0.047 J/K/mol
molar heat capacity at constant pressure (232.56 K): 23.38 ± 0.047 J/K/mol
molar heat capacity at constant pressure (234.62 K): 23.41 ± 0.047 J/K/mol
molar heat capacity at constant pressure (237.73 K): 23.49 ± 0.047 J/K/mol
molar heat capacity at constant pressure (239.79 K): 23.53 ± 0.047 J/K/mol
molar heat capacity at constant pressure (242.89 K): 23.59 ± 0.047 J/K/mol
molar heat capacity at constant pressure (248.06 K): 23.68 ± 0.047 J/K/mol
molar heat capacity at constant pressure (253.24 K): 23.77 ± 0.048 J/K/mol
molar heat capacity at constant pressure (258.41 K): 23.86 ± 0.048 J/K/mol
molar heat capacity at constant pressure (263.59 K): 23.95 ± 0.048 J/K/mol
molar heat capacity at constant pressure (268.77 K): 24.02 ± 0.048 J/K/mol
molar heat capacity at constant pressure (273.95 K): 24.09 ± 0.048 J/K/mol
molar heat capacity at constant pressure (279.13 K): 24.16 ± 0.048 J/K/mol
molar heat capacity at constant pressure (284.31 K): 24.23 ± 0.048 J/K/mol
molar heat capacity at constant pressure (289.49 K): 24.31 ± 0.049 J/K/mol
molar heat capacity at constant pressure (294.67 K): 24.38 ± 0.049 J/K/mol
molar heat capacity at constant pressure (297.38 K): 24.41 ± 0.049 J/K/mol
molar heat capacity at constant pressure (299.85 K): 24.44 ± 0.049 J/K/mol
molar heat capacity at constant pressure (302.55 K): 24.49 ± 0.049 J/K/mol
molar heat capacity at constant pressure (307.73 K): 24.55 ± 0.049 J/K/mol
molar heat capacity at constant pressure (312.92 K): 24.61 ± 0.049 J/K/mol
molar heat capacity at constant pressure (318.1 K): 24.67 ± 0.049 J/K/mol
molar heat capacity at constant pressure (323.28 K): 24.73 ± 0.049 J/K/mol
molar heat capacity at constant pressure (325.89 K): 24.75 ± 0.05 J/K/mol
molar heat capacity at constant pressure (328.47 K): 24.78 ± 0.05 J/K/mol
molar heat capacity at constant pressure (331.06 K): 24.8 ± 0.05 J/K/mol
molar heat capacity at constant pressure (336.25 K): 24.85 ± 0.05 J/K/mol
molar heat capacity at constant pressure (341.44 K): 24.91 ± 0.05 J/K/mol
molar heat capacity at constant pressure (346.62 K): 24.95 ± 0.05 J/K/mol
molar heat capacity at constant pressure (351.8 K): 24.99 ± 0.05 J/K/mol
molar heat capacity at constant pressure (356.99 K): 25.03 ± 0.05 J/K/mol
molar heat capacity at constant pressure (363.06 K): 25.07 ± 0.05 J/K/mol
molar heat capacity at constant pressure (368.04 K): 25.11 ± 0.05 J/K/mol
molar heat capacity at constant pressure (373.02 K): 25.17 ± 0.05 J/K/mol
molar heat capacity at constant pressure (378 K): 25.25 ± 0.051 J/K/mol
molar heat capacity at constant pressure (382.98 K): 25.25 ± 0.05 J/K/mol
molar heat capacity at constant pressure (387.96 K): 25.3 ± 0.051 J/K/mol
molar heat capacity at constant pressure (392.94 K): 25.35 ± 0.051 J/K/mol
molar heat capacity at constant pressure (397.62 K): 25.41 ± 0.051 J/K/mol
